These results are taken from article PMC5403781, “Heterologous expression of a Streptomyces cyaneus laccase for biomass modification applications” (AMB Express, 2017).

Each structure is given as a SMILES string. Read-outs that look alike come from different tables or passages of the source.

Test [1] concerns ScLac. Particulars: read-out: ABTS; 100 mM MES pH 5.5, 30 °C; free enzyme, copper-loaded; substrate 5–95 µM.
The test system of test [2] is T1, ScLac.
T1 construct: C-terminal His6 tag (pET-22b(+), NdeI/XhoI), expressed in E. coli BL21 (DE3) Star; primers encode N-terminus METDIIER and C-terminal HGAGHTG before the LE-His6 tag; copper-loaded with CuSO4 after purification
The test can be described thus: spectrophotometric oxidation, […] nm. It is filed as biochemical, Streptomyces cyaneus. Conditions: 100 mM MES pH 5.5, 30 °C; free enzyme, copper-loaded; substrate 5–95 µM; read-out: DMP.

Test [3] relates to T1, ScLac. The test can be described thus: spectrophotometric oxidation, […] nm. It is filed as biochemical, Streptomyces cyaneus. Conditions: 100 mM MES pH 5.5, 30 °C; free enzyme, copper-loaded; substrate 5–95 µM; read-out: Guaiacol.

Take `CCn1c(=NN=c2sc3cc(S(=O)(=O)O)ccc3n2CC)sc2cc(S(=O)(=O)O)ccc21` [ABTS]: the Km in the test on ScLac [1] turned out to be 33.5 ± 27.9 µM.
For `COc1cccc(OC)c1O` [DMP, 2,6-dimethoxyphenol], in the test with ScLac [2], the Km was 202 ± 34.8 µM.
Regarding `COc1ccccc1O` [guaiacol], the Km in the test with ScLac [3] was found to be 5.4 ± 1.9 µM.
